Assay results taken from PMC10374545, “A small molecule inhibitor of PTP1B and PTPN2 enhances T cell anti-tumor immunity” (Nature Communications, 2023).

Assays:
Assay in all cases: PTP selectivity, DiFMUP assay
Assay type in all cases: biochemical
Conditions in all cases: DiFMUP at Km
[1] = biological target: T1, CDC14B (Homo sapiens, UniProt O60729)
T1 construct: CDC14B, residues 1-411; made in house; host or cells: E. coli BL21(DE3)
Protocol: (§1) E. coli BL21(DE3) (Novagen) was used as an expression host and the induction of protein expression was carried out in LB media with 1 mM IPTG at 18 °C overnight. Cell pellets were stored at −80 °C for subsequent protein purification.
(§2) Protein purification of PTPs for enzymatic assays was conducted at 4 °C. Frozen cell pellets were lysed by sonication in 40 ml cold lysis buffer (50 mM Tris-HCl, pH 8.0, 150 mM NaCl, 5 mM imidazole, and 1 mM PMSF) per litre cell pellet. Cell lysates were clarified by centrifugation using a Beckman JA-18 rotor for 15 min at 5308 x g. The supernatant was incubated with HisPur Ni-NTA resin (Thermo Scientific) for 2 h and then packed onto a column and washed with 50 resin volume of buffer A (50 mM Tris-HCl, pH 8.0, 500 mM NaCl, 5 mM imidazole). The His-tagged proteins were eluted with Buffer B (50 mM Tris-HCl, pH=8.0, 500 mM NaCl, 300 mM imidazole,). Pooled His-protein-containing fractions were concentrated, loaded onto a HiLoad 26/600 Superdex 75 column (GE Healthcare Biosciences) and eluted with storage buffer (50 mM Tris-HCl, pH 8.0, 150 mM NaCl, 1 mM DTT, 10% glycerol). […] The protein was aliquoted and stored at −80 °C.
(§3) The PTP kinetic assay was modified from previous reported protocols[73],[74]. PTP activity was assayed using 6,8-Difluoro-4-Methylumbelliferyl Phosphate (DiFMUP, Invitrogen, cat# D6567,) as a substrate in 3,3-Dimethylglutaric acid (DMG) buffer (50 mM DMG, pH 7.0, 1 mM EDTA, 18 mM NaCl, 0.01% Triton X-100) at 25 °C. To determine the IC50 values, the assays were performed in 96-well plates (Corning Costar 3915). […] The final reaction volume is 200 µl. The reaction was allowed to proceed for 10 min and then quenched by the addition of 40 µl of a 160 µM solution of bpV(Phen) (Sigma-Aldrich, cat# SML0889). The fluorescence signal was measured using a CLARIOstar Plus Microplate Spectrophotometer (BMG Labtech) using excitation and emission wavelengths of 340 nm and 450 nm, respectively. Data were fitted using Prism GraphPad 9.2.0.
(§4) To determine the mode of inhibition, the reactions were initiated by the addition of enzyme (final concentration for PTP1B and PTPN2 was 0.05 nM) to the reaction mixtures (0.2 ml) containing various concentrations of DiFMUP with different concentrations of the inhibitor. The reaction was allowed to proceed for 10 min and then quenched by the addition of 40 µl of a 160 µM solution of bpV(Phen) (Sigma-Aldrich, cat# SML0889). The fluorescence signal was measured using a CLARIOstar Plus Microplate Spectrophotometer (BMG Labtech) using excitation and emission wavelength of 340 nm and 450 nm, respectively. Data were fitted using Prism GraphPad 9.2.0. For selectivity studies, the inhibition assay for other PTPs were performed under the same conditions as used for PTP1B and PTPN2 except with different DiFMUP concentration corresponding to the Km of the PTP studied.

[2] = biological target: T2, LYP (Homo sapiens, UniProt Q9Y2R2)
T2 construct: LYP/PTPN22, residues 1-294; made in house; host or cells: E. coli BL21(DE3)
T2 sequence (Q9Y2R2 1-294): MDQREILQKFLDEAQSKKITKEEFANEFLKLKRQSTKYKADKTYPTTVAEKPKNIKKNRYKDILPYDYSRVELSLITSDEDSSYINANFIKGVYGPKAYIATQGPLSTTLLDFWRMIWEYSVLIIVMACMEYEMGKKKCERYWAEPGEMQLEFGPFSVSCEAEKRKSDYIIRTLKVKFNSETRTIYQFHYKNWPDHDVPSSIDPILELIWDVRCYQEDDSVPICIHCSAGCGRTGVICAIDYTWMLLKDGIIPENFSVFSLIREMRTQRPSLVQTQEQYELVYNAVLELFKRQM
Protocol: as §1, §2, §3, §4

[3] = biological target: T3, MKP5 (Homo sapiens, UniProt Q9Y6W6)
T3 construct: MKP5, residues 320-647; made in house; host or cells: E. coli BL21(DE3)
T3 sequence (Q9Y6W6 320-467 limits assumed): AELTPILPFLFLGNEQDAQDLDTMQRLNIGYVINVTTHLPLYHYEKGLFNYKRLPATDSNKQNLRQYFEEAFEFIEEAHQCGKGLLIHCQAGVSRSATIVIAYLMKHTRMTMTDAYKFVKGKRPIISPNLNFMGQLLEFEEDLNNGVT
Protocol: as §1, §2, §3, §4

[4] = biological target: T4, SHP-1 (Homo sapiens, UniProt P29350)
T4 construct: SHP-1, residues 245-543; made in house; host or cells: E. coli BL21(DE3)
T4 sequence (P29350 245-543): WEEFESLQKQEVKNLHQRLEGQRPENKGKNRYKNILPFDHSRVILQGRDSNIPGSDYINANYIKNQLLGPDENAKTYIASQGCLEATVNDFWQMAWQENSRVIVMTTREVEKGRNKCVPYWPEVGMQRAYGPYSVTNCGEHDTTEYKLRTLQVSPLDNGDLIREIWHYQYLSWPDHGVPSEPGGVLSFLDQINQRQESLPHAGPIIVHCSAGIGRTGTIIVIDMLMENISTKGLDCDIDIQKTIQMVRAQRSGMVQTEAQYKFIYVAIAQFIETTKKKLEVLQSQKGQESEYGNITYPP
Protocol: as §1, §2, §3, §4

[5] = biological target: T5, FAP-1 (Homo sapiens, UniProt Q12923)
T5 construct: FAP1, residues 2124-2485; made in house; host or cells: E. coli BL21(DE3)
T5 sequence (Q12923 2124-2485): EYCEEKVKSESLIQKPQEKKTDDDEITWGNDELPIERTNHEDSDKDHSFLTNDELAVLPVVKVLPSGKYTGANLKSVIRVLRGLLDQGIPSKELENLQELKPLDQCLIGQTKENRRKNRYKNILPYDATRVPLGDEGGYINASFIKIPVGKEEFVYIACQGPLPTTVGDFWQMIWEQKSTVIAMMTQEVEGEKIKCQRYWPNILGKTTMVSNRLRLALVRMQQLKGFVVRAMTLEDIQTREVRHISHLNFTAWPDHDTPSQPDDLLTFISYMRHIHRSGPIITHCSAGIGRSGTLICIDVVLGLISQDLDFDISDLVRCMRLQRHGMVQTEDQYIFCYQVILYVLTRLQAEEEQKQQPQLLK
Protocol: as §1, §2, §3, §4

[6] = biological target: T6, CD45 (Homo sapiens, UniProt P08575)
T6 construct: CD45, residues 620-1236; made in house; host or cells: E. coli BL21(DE3)
T6 sequence (P08575 620-1236): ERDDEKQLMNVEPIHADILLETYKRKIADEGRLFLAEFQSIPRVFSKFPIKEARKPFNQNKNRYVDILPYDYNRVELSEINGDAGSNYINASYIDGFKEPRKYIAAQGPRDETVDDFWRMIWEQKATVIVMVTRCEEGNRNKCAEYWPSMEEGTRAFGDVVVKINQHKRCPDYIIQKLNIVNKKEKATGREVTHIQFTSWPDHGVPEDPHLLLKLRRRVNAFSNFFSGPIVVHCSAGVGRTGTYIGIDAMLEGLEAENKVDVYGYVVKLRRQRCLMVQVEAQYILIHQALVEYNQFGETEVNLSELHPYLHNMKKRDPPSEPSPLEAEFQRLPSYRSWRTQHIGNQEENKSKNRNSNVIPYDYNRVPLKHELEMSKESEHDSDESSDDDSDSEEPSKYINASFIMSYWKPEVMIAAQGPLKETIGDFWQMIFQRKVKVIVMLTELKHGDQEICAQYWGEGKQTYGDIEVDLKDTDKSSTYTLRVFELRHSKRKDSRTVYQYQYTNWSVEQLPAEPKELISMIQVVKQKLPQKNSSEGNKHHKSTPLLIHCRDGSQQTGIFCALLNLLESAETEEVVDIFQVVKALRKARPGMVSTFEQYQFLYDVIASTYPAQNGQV
Protocol: as §1, §2, §3, §4

[7] = biological target: T7, SHP-2 (Homo sapiens, UniProt Q06124)
T7 construct: SHP-2, residues 224-528; made in house; host or cells: E. coli BL21(DE3)
T7 sequence (Q06124 224-528): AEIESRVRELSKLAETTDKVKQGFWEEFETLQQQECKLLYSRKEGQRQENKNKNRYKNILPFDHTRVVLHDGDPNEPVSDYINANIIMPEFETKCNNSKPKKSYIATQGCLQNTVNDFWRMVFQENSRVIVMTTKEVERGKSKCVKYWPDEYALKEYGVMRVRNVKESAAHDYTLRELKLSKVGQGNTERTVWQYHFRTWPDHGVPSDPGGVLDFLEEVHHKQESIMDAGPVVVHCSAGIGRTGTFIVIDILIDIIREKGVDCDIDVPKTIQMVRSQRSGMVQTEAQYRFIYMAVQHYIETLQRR
Protocol: as §1, §2, §3, §4

[8] = biological target: T8, VHZ (Homo sapiens, UniProt Q9BVJ7)
T8 construct: VHZ, residues 1-150; made in house; host or cells: E. coli BL21(DE3)
T8 sequence (Q9BVJ7 whole entry, the tested form may be a part): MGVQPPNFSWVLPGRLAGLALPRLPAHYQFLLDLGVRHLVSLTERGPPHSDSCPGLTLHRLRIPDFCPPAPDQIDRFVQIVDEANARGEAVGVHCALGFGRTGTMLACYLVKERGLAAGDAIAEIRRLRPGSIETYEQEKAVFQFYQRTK
Protocol: as §1, §2, §3, §4

[9] = biological target: T9, CDC14A (Homo sapiens, UniProt Q9UNH5)
T9 construct: CDC14A, residues 1-413; made in house; host or cells: E. coli BL21(DE3)
T9 sequence (Q9UNH5 1-413): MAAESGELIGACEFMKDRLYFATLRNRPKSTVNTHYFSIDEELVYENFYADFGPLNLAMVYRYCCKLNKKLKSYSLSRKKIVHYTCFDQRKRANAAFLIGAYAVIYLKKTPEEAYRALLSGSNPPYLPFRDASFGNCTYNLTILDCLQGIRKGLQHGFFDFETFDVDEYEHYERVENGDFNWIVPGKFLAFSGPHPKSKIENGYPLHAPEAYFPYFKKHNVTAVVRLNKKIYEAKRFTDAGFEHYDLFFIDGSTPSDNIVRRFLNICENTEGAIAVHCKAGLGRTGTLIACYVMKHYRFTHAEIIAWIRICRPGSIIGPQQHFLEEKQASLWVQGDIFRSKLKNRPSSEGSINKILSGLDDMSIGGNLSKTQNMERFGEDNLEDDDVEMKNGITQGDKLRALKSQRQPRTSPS
Protocol: as §1, §2, §3, §4

[10] = biological target: T10, Laforin (Homo sapiens, UniProt O95278)
T10 construct: made in house; host or cells: E. coli BL21(DE3)
T10 sequence (O95278 whole entry): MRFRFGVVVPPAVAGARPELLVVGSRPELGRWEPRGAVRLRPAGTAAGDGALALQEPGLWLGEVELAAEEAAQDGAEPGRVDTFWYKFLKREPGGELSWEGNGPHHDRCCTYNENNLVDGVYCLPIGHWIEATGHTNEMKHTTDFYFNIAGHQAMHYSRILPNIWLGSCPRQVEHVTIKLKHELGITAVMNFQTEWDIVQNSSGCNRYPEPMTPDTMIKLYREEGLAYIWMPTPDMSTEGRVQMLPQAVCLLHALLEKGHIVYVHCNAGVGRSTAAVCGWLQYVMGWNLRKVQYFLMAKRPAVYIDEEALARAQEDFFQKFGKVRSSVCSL
Protocol: as §1, §2, §3, §4

[11] = biological target: T11, PTPα (Homo sapiens, UniProt P18433)
T11 construct: PTPα, residues 173-793; made in house; host or cells: E. coli BL21(DE3)
Protocol: as §1, §2, §3, §4

[12] = biological target: T12, PTPε (Homo sapiens, UniProt P23469)
T12 construct: PTPε, residues 107-697; made in house; host or cells: E. coli BL21(DE3)
T12 sequence (P23469 107-697): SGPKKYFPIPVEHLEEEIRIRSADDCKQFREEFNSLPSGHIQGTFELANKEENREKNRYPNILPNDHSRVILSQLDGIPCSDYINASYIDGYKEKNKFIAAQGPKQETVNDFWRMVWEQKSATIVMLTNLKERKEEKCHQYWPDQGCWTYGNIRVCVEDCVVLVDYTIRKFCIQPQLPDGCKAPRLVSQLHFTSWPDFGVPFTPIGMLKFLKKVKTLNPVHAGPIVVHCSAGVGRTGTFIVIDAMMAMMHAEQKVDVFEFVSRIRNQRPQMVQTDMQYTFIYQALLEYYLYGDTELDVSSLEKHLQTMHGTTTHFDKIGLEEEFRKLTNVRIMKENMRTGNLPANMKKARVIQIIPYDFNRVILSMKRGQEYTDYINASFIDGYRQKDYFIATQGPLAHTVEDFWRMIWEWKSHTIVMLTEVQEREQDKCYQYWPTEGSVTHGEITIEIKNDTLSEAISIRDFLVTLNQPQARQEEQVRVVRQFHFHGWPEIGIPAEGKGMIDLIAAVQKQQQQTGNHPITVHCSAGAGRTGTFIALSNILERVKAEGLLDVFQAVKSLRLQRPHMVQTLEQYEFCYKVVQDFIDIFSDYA
Protocol: as §1, §2, §3, §4

[13] = biological target: T13, STEP (Homo sapiens, UniProt P54829)
T13 construct: STEP, residues 258-539; made in house; host or cells: E. coli BL21(DE3)
Protocol: as §1, §2, §3, §4

[14] = biological target: T14, LMPTP (Homo sapiens, UniProt P24666)
T14 construct: LMWPTP, residues 1-158; made in house; host or cells: E. coli BL21(DE3)
T14 sequence (P24666 whole entry, the tested form may be a part): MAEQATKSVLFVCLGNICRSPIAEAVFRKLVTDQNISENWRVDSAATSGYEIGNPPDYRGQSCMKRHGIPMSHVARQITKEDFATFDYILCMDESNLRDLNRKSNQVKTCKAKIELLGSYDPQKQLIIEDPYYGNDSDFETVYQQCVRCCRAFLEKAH
Protocol: as §1, §2, §3, §4

[15] = biological target: T15, PTP-PEST (Homo sapiens, UniProt Q05209)
T15 construct: PTP-PEST, residues 5-304; made in house; host or cells: E. coli BL21(DE3)
T15 sequence (Q05209 5-304): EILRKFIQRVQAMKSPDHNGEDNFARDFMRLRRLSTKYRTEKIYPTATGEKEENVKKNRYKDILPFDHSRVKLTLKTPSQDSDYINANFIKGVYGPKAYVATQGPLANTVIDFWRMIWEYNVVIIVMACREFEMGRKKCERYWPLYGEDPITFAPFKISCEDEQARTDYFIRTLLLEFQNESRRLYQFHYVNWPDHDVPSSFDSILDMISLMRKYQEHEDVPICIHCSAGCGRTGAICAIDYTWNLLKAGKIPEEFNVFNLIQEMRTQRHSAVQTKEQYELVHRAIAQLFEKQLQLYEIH
Protocol: as §1, §2, §3, §4

[16] = biological target: T16, HePTP (Homo sapiens, UniProt P35236)
T16 construct: HePTP, residues 22-360; made in house; host or cells: E. coli BL21(DE3)
T16 sequence (P35236 22-360): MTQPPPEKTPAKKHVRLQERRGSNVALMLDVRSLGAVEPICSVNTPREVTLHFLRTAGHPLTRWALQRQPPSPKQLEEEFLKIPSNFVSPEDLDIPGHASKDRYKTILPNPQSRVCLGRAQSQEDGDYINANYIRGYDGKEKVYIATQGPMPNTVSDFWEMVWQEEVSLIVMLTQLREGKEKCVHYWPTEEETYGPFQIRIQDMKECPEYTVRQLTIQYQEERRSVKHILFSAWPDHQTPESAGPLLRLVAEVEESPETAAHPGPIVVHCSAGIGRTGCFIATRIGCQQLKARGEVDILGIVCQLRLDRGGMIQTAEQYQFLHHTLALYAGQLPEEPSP
Protocol: as §1, §2, §3, §4

T1 sequence (O60729 1-411): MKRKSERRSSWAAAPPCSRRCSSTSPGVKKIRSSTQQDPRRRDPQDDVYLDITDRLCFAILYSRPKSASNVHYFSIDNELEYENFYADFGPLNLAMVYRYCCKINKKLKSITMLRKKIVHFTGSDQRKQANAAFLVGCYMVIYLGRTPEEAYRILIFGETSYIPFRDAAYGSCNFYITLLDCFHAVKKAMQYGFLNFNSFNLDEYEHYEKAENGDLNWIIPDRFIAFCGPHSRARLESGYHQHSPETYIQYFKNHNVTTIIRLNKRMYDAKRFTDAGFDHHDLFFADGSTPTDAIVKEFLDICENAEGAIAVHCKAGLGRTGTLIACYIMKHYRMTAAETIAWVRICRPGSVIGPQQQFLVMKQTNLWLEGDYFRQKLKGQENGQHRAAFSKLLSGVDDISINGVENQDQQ

CC(C)(O)CCOc1ccc2cc(O)c(N3CC(=O)NS3(=O)=O)c(F)c2c1 [Compound 182, 5-(1-Fluoro-3-hydroxy-7-(3-hydroxy-3-methylbutoxy)naphthalen-2-yl)−1,2,5-thiadiazolidin-3-one 1,1-dioxide]
IC50 [1]: 5.2 ± 1.7 µM
IC50 [2]: > 20 µM
IC50 [3]: > 20 µM
IC50 [4]: 9.1 ± 0.4 µM
IC50 [5]: > 20 µM
IC50 [6]: > 20 µM
IC50 [7]: 19.2 ± 1.7 µM
IC50 [8]: > 20 µM
IC50 [9]: 6.3 ± 0.8 µM
IC50 [10]: > 20 µM
IC50 [11]: > 20 µM
IC50 [12]: 0.8 ± 0.1 µM
IC50 [13]: > 20 µM
IC50 [14]: > 20 µM
IC50 [15]: > 20 µM
IC50 [16]: > 20 µM
